Values of other authors as cited in patent publication US20260284070A1, “Ophthalmic Solution of Brinzolamide” (Micro Labs Limited, priority 2023, published 2026).

Conditions: physiological pH (pH 6.0 to 7.5)

- Solubility: very limited solubility
Structure (SMILES): CCN[C@H]1CN(CCCOC)S(=O)(=O)c2sc(S(N)(=O)=O)cc21 [Brinzolamide, (R)-(+)-4-Ethylamino-2-(3-methoxypropyl)-3,4-dihydro-2H-thieno[3,2-e]-1,2-thiazine-6-sulfonamide-1,1-dioxide]
